Source: ChEMBL document CHEMBL1156969 (Bioorg Med Chem Lett, 2010)
Activity calls are given as the source filed them. No cut-off for these calls is given here.

What was measured:
Homo sapiens = species on record: Homo sapiens; test: Selectivity ratio of Ki for human melatonin MT1 receptor to Ki for human melatonin MT2 receptor
[1] = target: T1, Melatonin receptor type 1B (Homo sapiens, UniProt P49286); test: Displacement of [3H]melatonin from human melatonin MT2 receptor expressed in CHO cells after 60 mins by scintillation counting; format: cell-based
T1 sequence (P49286 whole entry): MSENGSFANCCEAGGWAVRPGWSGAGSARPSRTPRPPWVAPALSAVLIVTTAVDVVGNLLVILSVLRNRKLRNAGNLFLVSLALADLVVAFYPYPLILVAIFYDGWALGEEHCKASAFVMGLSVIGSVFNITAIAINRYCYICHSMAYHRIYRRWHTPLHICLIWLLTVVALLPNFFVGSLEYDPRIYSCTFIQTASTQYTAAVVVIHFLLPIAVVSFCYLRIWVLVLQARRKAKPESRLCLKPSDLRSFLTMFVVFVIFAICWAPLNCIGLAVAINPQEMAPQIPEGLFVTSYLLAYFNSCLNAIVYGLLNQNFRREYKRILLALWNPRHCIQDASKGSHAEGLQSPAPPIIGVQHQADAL

[2] = target: Melatonin receptor type 1A (Homo sapiens, UniProt P48039); test: Displacement of [3H]melatonin from human melatonin MT1 receptor expressed in CHO cells after 60 mins by scintillation counting; format: cell-based
Chain of Melatonin receptor type 1A (P48039 whole entry): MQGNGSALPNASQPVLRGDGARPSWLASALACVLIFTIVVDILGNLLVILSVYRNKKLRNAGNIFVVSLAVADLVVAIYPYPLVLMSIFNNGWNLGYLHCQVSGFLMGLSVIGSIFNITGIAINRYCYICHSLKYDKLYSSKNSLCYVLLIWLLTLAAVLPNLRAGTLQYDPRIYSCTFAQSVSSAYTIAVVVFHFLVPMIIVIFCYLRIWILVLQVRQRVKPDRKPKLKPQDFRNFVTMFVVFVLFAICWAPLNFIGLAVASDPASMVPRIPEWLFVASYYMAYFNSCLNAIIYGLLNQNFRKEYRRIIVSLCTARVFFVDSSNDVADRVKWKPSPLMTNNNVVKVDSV

[3] = Lipophilicity, log P of the compound; format: physicochemical; details: octanol/water
[4] = target: T2, Melatonin receptor type 1B (Homo sapiens) (UniProt P49286); test: Agonist activity at human MT2 receptor expressed as CHO cells assessed as intracellular Ca2+ accumulation by FLIPR assay; format: functional, cell-based
T2 sequence (whole entry): T1 sequence (P49286 whole entry)

Question: Which Ratio Ki (Homo sapiens) does the source give for COc1ccc(O)c(CCCNC(C)=O)c1 here?
Answer: 8.22

Question: And the Ki [1]?
Answer: 46.2 nM

Question: And the Ki [2]?
Answer: 379 nM

Question: For COc1ccc2[nH]cc(CCNC(C)=O)c2c1 [MELATONIN], which logP [3] is on record?
Answer: 2.16

Question: Which Ratio Ki (Homo sapiens) does the source give for COc1ccc(OC)c(CCCNC(C)=O)c1 here?
Answer: 49.1

Question: And the Ki [1]?
Answer: 26.1 nM

Question: And the Ki [2]?
Answer: 1280 nM

Question: With COc1cc(COc2ccc(OC)cc2CCCNC(C)=O)cc(OC)c1 as the compound, how does the Ki [1] read?
Answer: 0.0326 nM

Question: Which Activity [4] does the source give for CCC(=O)NCCCc1cc(OC)ccc1OCc1ccccc1 here?
Answer: Active

Question: What about the Ratio Ki (Homo sapiens) of the same compound?
Answer: 473000

Question: What about the Ki [1] of the same compound?
Answer: 0.00055 nM

Question: What about the Ki [2] of the same compound?
Answer: 263 nM

Question: What does the source list for COc1cccc(COc2ccc(CCCNC(C)=O)cc2OC)c1?
Answer: Ratio Ki (Homo sapiens): 13.9; Ki [1]: 105 nM; Ki [2]: 1460 nM

Question: Which Ki [2] does the source give for COc1cccc(COc2ccc(OC)cc2CCCNC(C)=O)c1 here?
Answer: 705 nM

Question: Which results are given for CCC(=O)NCCCc1cccc(OC)c1?
Answer: Ratio Ki (Homo sapiens): 12; Ki [1]: 7.07 nM; Ki [2]: 85.4 nM

Question: For CCOc1ccc(OC)cc1CCCNC(C)=O, which Ratio Ki (Homo sapiens) is on record?
Answer: 116

Question: And the Ki [1]?
Answer: 1.59 nM

Question: And the Ki [2]?
Answer: 183 nM

Question: Which Ratio Ki (Homo sapiens) does the source give for CCCOc1ccc(OC)cc1CCCNC(C)=O here?
Answer: 189

Question: And the Ki [1]?
Answer: 2.12 nM

Question: What about the Ki [2] of the same compound?
Answer: 400 nM

Question: Which Ratio Ki (Homo sapiens) does the source give for CCC(=O)NCCCc1ccc(OCc2ccccc2)c(OC)c1 here?
Answer: 16.7

Question: And the Ki [1]?
Answer: 121 nM

Question: And the Ki [2]?
Answer: 2010 nM

Question: For COc1ccc(OCCc2ccccc2)c(CCCNC(C)=O)c1, which Ratio Ki (Homo sapiens) is on record?
Answer: 219

Question: What about the Ki [1] of the same compound?
Answer: 13.4 nM

Question: What about the Ki [2] of the same compound?
Answer: 2930 nM

Question: Which Ki [1] does the source give for COc1ccc(OCc2ccccc2)c(CCCNC(=O)c2ccccc2)c1 here?
Answer: 2300 nM

Question: For COc1ccc(OCCCc2ccccc2)c(CCCNC(C)=O)c1, which Ki [1] is on record?
Answer: 72.2 nM

Question: Which results are given for CCCC(=O)NCCCc1cc(OC)ccc1OCc1ccccc1?
Answer: Activity [4]: Active; Ratio Ki (Homo sapiens): 1.14e+06; Ki [1]: 0.00103 nM; Ki [2]: 1170 nM

Question: With COc1ccc(OCc2ccccn2)c(CCCNC(C)=O)c1 as the compound, how does the Ratio Ki (Homo sapiens) read?
Answer: 1150

Question: What about the Ki [1] of the same compound?
Answer: 1.61 nM

Question: What about the Ki [2] of the same compound?
Answer: 1840 nM

Question: What does the source list for COc1cccc(CCCNC(C)=O)c1?
Answer: Ratio Ki (Homo sapiens): 31; Ki [1]: 0.751 nM; Ki [2]: 23.3 nM

Question: What does the source list for COc1ccc(COc2ccc(OC)cc2CCCNC(C)=O)cc1?
Answer: Ratio Ki (Homo sapiens): 97; Ki [1]: 27.9 nM; Ki [2]: 2700 nM

Question: With COc1cc(CCCNC(C)=O)ccc1OCc1ccccc1 as the compound, how does the Ratio Ki (Homo sapiens) read?
Answer: 130

Question: What about the Ki [1] of the same compound?
Answer: 69.3 nM

Question: And the Ki [2]?
Answer: 8980 nM

Question: What does the source list for COc1ccc(OCc2ccccc2)c(CCCNC(C)=O)c1?
Answer: Ratio Ki (Homo sapiens): 18700; Ki [1]: 0.0471 nM; Ki [2]: 879 nM

Question: With COc1cc(CCCNC(C)=O)ccc1O as the compound, how does the Ratio Ki (Homo sapiens) read?
Answer: 20.5

Question: What about the Ki [1] of the same compound?
Answer: 12.6 nM

Question: And the Ki [2]?
Answer: 257 nM

Question: For COc1ccc(OCc2ccc(Br)cc2F)c(CCCNC(C)=O)c1, which Ki [1] is on record?
Answer: 102 nM
